Results taken from patent US9873680B2 (Gilead Sciences, Inc., priority 2014, dated 2018).
Like-named read-outs stand apart in the source and are kept apart here.

Key:
[1] = Test B: Cytotoxicity Assay; assay type: cell-based; settings: human, uninfected MT-4 cells, CellTiter-Glo
Experimental: Test B: Cytotoxicity Assay Compound cytotoxicity and the corresponding CC50 values was determined using the same protocol as described in the antiviral assay (Test A) except that uninfected cells were used.

HIV-IIIb = assay: Test A: Antiviral Assay in MT4 Cells; assay type: cell-based, HIV-1; settings: read-out: % inhibition at 0.2 μM (percent inhibition of virus-induced cell killing)
In short: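 MT-4 cells were preinfected with HIV-IIIb […]. Cell viability, as protection from viral cytopathic effect, was read by CellTiter-Glo chemiluminescence.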

[2] = Human immunodeficiency virus 1, MT4, 120 h, 0.2 μM drug concentration, MT-4 cells infected with HIV-IIIb, 5 days, values normalized to 100%, average over time

In the case of Cn1nc(NS(C)(=O)=O)c2c(Cl)ccc(-c3ccc(C#CC(C)(O)C4CC4)nc3[C@H](Cc3cc(F)cc(F)c3)NC(=O)Cn3nc(C(F)(F)F)c4c3C(F)(F)[C@@H]3C[C@H]43)c21 (stereo partly drawn) [Compound 59, N-((1S)-1-(3-(4-chloro-1-methyl-3-(methylsulfonamido)-1H-indazol-7-yl)-6-(3-cyclopropyl-3-hydroxybut-1-yn-1-yl)pyridin-2-yl)-2-(3,5-difluorophenyl)ethyl)-2-((3bS,4aR)-5,5-difluoro-3-(trifluoromethyl)-3b,4,4a,5-tetrahydro-1H-cyclopropa[3,4]cyclopenta[1,2-c]pyrazol-1-yl)acetamide], the CC50 at 5 days [1] is reported as 10.2 µM and the inhibition at 0.2 µM (HIV-IIIb; [2]) is reported as 95%.
With Cn1nc(NS(C)(=O)=O)c2c(Cl)ccc(-c3ccc(C#CC(C)(C)N4CCOC4=O)nc3[C@H](Cc3cc(F)cc(F)c3)NC(=O)Cn3nc(C(F)F)c4c3C(F)(F)[C@@H]3C[C@H]43)c21 [Compound 60D, N—((S)-1-(3-(4-chloro-1-methyl-3-(methylsulfonamido)-1H-indazol-7-yl)-6-(3-methyl-3-(2-oxooxazolidin-3-yl)but-1-yn-1-yl)pyridin-2-yl)-2-(3,5-difluorophenyl)ethyl)-2-((3bS,4aR)-3-(difluoromethyl)-5,5-difluoro-3b,4,4a,5-tetrahydro-1H-cyclopropa[3,4]cyclopenta[1,2-c]pyrazol-1-yl)acetamide] the CC50 at 5 days [1] was greater than 27.8 µM and the inhibition at 0.2 µM (HIV-IIIb; Human immunodeficiency virus 1, IIIB, MT4, 120 h) was 94%.
For Cn1nc(NS(C)(=O)=O)c2c(Cl)ccc(-c3ccc(C#CC4(O)CCC4)nc3[C@H](Cc3cc(F)cc(F)c3)NC(=O)Cn3nc(C(F)(F)F)c4c3C(F)(F)[C@@H]3C[C@H]43)c21 [Compound 61C, N—((S)-1-(3-(4-chloro-1-methyl-3-(methylsulfonamido)-1H-indazol-7-yl)-6-((1-hydroxycyclobutyl)ethynyl)pyridin-2-yl)-2-(3,5-difluorophenyl)ethyl)-2-((3bS,4aR)-5,5-difluoro-3-(trifluoromethyl)-3b,4,4a,5-tetrahydro-1H-cyclopropa[3,4]cyclopenta[1,2-c]pyrazol-1-yl)acetamide], the CC50 at 5 days [1] was 7.89 µM and the inhibition at 0.2 µM (HIV-IIIb; [2]) was 93%.
With Cn1nc(NS(C)(=O)=O)c2c(Cl)ccc(-c3ccc(C#CC4(O)CC4)nc3[C@H](Cc3cc(F)cc(F)c3)NC(=O)Cn3nc(C(F)F)c4c3C(F)(F)[C@@H]3C[C@H]43)c21 [Compound 62B, N—((S)-1-(3-(4-chloro-1-methyl-3-(methylsulfonamido)-1H-indazol-7-yl)-6-((1-hydroxycyclopropyl)ethynyl)pyridin-2-yl)-2-(3,5-difluorophenyl)ethyl)-2-((3bS,4aR)-3-(difluoromethyl)-5,5-difluoro-3b,4,4a,5-tetrahydro-1H-cyclopropa[3,4]cyclopenta[1,2-c]pyrazol-1-yl)acetamide] the CC50 at 5 days [1] was 14.9 µM and the inhibition at 0.2 µM (HIV-IIIb; [2]) was 93%.
In the case of Cn1nc(NS(C)(=O)=O)c2c(Cl)ccc(-c3ccc(C#CC(C)(C)N4CCOC4=O)nc3[C@H](Cc3cc(F)cc(F)c3)NC(=O)Cn3nc(C(F)(F)F)c4c3C(F)(F)[C@@H]3C[C@H]43)c21 [Compound 63, N—((S)-1-(3-(4-chloro-1-methyl-3-(methylsulfonamido)-1H-indazol-7-yl)-6-(3-methyl-3-(2-oxooxazolidin-3-yl)but-1-yn-1-yl)pyridin-2-yl)-2-(3,5-difluorophenyl)ethyl)-2-((3bS,4aR)-5,5-difluoro-3-(trifluoromethyl)-3b,4,4a,5-tetrahydro-1H-cyclopropa[3,4]cyclopenta[1,2-c]pyrazol-1-yl)acetamide], the CC50 at 5 days [1] is reported as 20.7 µM and the inhibition at 0.2 µM (HIV-IIIb; [2]) is reported as 90%.
